Inhibition data for three molecules are collected here from patent US20220009920A1 (GB005, Inc., priority 2020, published 2022).

Experiment in all cases: Large panel kinase profiling
Type in all cases: biochemical
What all share (settings): 1 μM test article, 1 mM ATP

The target of assay [1] is CAMK1G (Homo sapiens, UniProt Q96NX5). In outline: (§1)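 Fluorescence intensity (Ex 360 nm, Em 485 nm) was monitored continuously, once per minute, in PhosphoSens CSox-Sensor kinase reactions held at 30° C. Compound was present at 1 μM and ATP at 1 mM.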
Assay [2] addresses LCK (Homo sapiens, UniProt P06239). In outline: as §1
Assay [3] concerns the target FER (Homo sapiens, UniProt P16591). In a few lines: as §1
Assay [4] concerns the target PRKAA1/AMPK121 (Homo sapiens, UniProt Q13131). In outline:
as §1

Assay [5] addresses T1, ZAP70 (Homo sapiens, UniProt P43403).
T1 construct: AssayQuant Technologies, Inc. (contract laboratory that ran the panel)
T1 sequence (P43403 1-619): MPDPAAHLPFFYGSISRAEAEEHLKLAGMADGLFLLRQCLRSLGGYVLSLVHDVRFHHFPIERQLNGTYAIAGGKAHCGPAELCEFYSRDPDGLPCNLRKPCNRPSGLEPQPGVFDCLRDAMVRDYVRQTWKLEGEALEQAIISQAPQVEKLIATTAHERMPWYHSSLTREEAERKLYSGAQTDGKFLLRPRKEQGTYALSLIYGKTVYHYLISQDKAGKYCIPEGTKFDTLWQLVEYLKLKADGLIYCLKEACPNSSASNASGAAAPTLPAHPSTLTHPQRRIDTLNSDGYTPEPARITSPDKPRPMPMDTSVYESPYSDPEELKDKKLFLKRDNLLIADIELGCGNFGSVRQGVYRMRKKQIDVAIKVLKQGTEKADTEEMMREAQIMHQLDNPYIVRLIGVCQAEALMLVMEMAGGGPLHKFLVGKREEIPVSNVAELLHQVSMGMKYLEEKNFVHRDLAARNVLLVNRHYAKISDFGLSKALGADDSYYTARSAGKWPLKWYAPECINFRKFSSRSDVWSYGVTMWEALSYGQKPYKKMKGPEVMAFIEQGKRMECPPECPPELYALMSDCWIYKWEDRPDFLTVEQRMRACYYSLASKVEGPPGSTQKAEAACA
In outline: as §1

Assay [6] deals with T2, CAMKK1 (Homo sapiens, UniProt Q8N5S9).
T2 construct: AssayQuant Technologies, Inc. (ran the panel)
In outline: as §1

In assay [7] the target is T3, IKBKE/IKKE (Homo sapiens, UniProt Q14164).
T3 construct: AssayQuant Technologies, Inc. (service provider)
T3 sequence (Q14164 1-716): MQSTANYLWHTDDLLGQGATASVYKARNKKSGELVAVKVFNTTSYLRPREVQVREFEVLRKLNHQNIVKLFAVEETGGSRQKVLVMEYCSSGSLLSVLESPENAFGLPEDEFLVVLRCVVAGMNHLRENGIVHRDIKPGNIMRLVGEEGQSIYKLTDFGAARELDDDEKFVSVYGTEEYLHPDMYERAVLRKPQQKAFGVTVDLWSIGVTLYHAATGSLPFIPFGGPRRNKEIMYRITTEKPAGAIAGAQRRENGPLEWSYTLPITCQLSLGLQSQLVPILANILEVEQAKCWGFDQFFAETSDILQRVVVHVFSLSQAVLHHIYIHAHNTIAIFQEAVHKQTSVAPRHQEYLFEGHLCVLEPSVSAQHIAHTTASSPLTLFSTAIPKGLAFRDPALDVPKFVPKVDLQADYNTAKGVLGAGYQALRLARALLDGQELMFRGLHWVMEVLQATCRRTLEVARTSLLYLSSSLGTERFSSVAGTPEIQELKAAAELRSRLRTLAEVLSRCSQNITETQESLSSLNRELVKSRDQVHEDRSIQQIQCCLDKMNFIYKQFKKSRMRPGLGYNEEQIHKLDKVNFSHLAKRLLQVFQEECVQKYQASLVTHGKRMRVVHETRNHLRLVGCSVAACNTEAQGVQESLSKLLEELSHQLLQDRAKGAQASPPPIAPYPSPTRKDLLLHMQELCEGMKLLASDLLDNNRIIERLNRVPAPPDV
In a few lines: as §1

What is called inhibition is the relative decrease from the control value, in per cent.

Each structure is given as a SMILES string.

Sequence of LCK (P06239 whole entry, species assumed): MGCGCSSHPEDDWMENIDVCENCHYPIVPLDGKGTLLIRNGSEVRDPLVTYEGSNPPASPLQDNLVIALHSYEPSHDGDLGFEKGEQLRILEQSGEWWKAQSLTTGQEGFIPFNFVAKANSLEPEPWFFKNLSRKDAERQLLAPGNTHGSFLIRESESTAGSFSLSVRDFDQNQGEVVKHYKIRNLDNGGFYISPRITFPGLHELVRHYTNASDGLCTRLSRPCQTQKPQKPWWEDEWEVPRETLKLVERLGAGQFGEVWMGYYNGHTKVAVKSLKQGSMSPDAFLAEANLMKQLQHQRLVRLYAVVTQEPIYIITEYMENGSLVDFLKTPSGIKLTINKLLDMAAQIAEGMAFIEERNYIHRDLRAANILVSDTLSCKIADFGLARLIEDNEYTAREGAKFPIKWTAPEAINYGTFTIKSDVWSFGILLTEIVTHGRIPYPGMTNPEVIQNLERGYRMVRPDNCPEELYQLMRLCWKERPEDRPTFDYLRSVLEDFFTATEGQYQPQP
Sequence of FER (P16591 whole entry, species assumed): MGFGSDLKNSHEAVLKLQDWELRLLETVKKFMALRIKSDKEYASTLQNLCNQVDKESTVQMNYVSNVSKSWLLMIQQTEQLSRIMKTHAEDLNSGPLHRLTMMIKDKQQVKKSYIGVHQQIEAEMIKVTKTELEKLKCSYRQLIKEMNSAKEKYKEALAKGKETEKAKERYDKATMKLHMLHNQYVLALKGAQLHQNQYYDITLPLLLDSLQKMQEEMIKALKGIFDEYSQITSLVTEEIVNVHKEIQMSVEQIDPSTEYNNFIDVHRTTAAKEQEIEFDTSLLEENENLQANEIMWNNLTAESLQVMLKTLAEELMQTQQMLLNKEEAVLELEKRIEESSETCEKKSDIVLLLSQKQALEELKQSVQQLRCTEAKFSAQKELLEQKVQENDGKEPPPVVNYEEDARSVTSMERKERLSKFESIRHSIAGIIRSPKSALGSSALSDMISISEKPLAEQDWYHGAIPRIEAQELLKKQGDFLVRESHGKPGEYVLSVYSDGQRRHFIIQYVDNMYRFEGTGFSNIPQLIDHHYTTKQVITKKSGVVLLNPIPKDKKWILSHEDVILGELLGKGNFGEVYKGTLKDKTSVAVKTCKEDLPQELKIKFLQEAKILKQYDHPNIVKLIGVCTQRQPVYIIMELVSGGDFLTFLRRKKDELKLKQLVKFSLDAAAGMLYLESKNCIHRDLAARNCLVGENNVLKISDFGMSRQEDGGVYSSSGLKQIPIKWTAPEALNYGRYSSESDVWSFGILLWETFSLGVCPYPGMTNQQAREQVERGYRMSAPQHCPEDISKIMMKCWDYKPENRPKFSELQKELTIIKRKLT
Sequence of PRKAA1/AMPK121 (Q13131 whole entry, species assumed): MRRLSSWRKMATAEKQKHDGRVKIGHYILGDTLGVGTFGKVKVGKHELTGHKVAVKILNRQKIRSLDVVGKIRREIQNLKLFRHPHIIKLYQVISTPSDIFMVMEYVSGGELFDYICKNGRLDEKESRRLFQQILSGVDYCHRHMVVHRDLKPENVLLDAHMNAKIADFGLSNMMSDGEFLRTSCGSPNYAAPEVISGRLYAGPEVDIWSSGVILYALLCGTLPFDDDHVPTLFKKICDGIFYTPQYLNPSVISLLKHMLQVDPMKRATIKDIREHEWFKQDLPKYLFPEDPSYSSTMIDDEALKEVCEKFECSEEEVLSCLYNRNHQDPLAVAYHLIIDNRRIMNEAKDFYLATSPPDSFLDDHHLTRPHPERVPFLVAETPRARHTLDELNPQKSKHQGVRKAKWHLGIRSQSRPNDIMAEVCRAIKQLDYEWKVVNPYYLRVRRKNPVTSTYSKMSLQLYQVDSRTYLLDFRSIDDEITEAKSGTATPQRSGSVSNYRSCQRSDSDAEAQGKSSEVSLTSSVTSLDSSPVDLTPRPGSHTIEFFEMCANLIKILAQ
Sequence of PRKAA1/AMPK121 (O43741 whole entry partner, species assumed): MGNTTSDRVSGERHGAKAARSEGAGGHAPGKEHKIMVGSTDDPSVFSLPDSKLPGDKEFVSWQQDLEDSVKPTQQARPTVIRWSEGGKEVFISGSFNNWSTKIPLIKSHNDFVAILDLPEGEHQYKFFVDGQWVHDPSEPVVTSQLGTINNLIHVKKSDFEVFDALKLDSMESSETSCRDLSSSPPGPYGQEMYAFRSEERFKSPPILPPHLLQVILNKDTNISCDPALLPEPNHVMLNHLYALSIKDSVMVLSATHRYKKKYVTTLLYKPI
Sequence of PRKAA1/AMPK121 (P54619 whole entry partner, species assumed): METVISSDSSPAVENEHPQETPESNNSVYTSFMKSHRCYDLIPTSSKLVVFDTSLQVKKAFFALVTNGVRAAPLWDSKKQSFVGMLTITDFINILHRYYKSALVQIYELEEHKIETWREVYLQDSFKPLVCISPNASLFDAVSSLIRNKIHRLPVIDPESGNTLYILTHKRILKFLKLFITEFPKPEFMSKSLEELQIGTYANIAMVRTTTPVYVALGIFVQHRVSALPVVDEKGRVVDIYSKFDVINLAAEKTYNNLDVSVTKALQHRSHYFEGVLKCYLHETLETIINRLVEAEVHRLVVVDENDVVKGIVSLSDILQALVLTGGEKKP
T2 sequence (Q8N5S9 whole entry, species assumed): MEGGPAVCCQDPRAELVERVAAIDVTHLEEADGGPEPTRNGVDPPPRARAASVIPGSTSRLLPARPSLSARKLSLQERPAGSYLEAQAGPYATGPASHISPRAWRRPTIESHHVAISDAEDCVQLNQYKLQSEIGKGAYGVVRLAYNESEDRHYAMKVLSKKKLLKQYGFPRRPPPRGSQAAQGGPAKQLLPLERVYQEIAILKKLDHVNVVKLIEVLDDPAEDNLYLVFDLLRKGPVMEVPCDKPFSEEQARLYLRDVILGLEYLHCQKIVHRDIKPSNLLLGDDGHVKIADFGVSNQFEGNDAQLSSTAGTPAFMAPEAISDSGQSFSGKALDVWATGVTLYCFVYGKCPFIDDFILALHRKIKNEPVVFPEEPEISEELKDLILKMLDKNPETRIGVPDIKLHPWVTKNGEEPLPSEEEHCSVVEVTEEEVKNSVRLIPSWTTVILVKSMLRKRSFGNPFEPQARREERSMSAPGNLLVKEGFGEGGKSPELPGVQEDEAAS
Sequence of CAMK1G (Q96NX5 whole entry): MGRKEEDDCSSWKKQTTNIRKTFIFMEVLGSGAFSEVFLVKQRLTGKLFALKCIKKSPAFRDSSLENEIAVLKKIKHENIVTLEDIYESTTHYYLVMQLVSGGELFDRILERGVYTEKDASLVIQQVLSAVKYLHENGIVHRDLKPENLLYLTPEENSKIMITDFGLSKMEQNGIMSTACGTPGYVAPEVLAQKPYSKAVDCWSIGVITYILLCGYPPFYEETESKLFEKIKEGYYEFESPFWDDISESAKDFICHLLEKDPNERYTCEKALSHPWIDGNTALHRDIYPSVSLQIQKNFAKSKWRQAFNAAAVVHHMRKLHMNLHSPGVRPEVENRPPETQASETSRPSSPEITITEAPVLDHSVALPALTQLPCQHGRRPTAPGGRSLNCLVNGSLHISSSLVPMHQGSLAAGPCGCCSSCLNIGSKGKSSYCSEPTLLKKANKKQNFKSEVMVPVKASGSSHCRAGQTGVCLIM

Turning to `C=CC(=O)N1CCC[C@@H](c2c(F)cc(C(N)=O)c3[nH]c4c(c23)CCC4)C1` [Compound 10-2, (S)-8-(1-acryloylpiperidin-3-yl)-7-fluoro-1,2,3,4-tetrahydrocyclo-penta[b]indole-5-carboxamide], the inhibition at 1 µM in assay [1] was 9.7%; in assay [2], 18.3%; in assay [3], 29.3%; in assay [4], 34.2%; in assay [5], -9.5%; in assay [6] it was 3.7%. Moreover, the inhibition at 1 µM in assay [7] is -12.8%.
As for `C=CC(=O)N1CCCC(c2c(F)cc(C(N)=O)c3[nH]c4c(c23)CCCCC4)C1` (single isomer, unassigned) [Compound 5-6], the inhibition at 1 µM in assay [1] is 15.6%; in assay [2], 0.2%; in assay [3], 32%; in assay [4], -7.9%; in assay [5], -22.5%; in assay [6], 22.2%. The inhibition at 1 µM in assay [7] was found to be 3.4%.
Regarding `C=CC(=O)N1CCC[C@@H](c2c(F)cc(C(N)=O)c3[nH]c4c(c23)CC2(CC4)CC2)C1` [Compound 6-2, (S)-5-(1-acryloylpiperidin-3-yl)-6-fluoro-1,2,4,9-tetrahydrospiro[carbazole-3,1′-cyclopropane]-8-carboxamide], the inhibition at 1 µM was found to be 19.6% in assay [1]; 15.9% in assay [2]; 2.1% in assay [3]; 31.3% in assay [4]; 1.7% in assay [5]; 5.7% in assay [6]. Moreover, the inhibition at 1 µM in assay [7] is -18%.
